Data as given in patent US11879013B2, “Combination therapies with bispecific anti-EGFR/c-Met antibodies and third generation EGFR tyrosine kinase inhibitors” (Janssen Biotech, Inc., priority 2019, dated 2024).

Experiments:
[1] = test system: H1975-HGF xenografts; assay: Antitumor activity in H1975-HGF human lung carcinoma xenograft model; type: in vivo, female athymic nude mice; conditions: for TGI as compared to controls: Day 28, 10 mg/kg each agent, TKI po qd x 21, JNJ-372 ip biwk x 3
[2] = Body weight and clinical signs of nude mice bearing H1975 xenografts; type: in vivo, female athymic nude mice; conditions: for body weight change compared to the control group: H1975-xenograft-bearing nude mice, 10 mg/kg, JNJ-372 at Day 29, TKI-containing groups p<0.05; for day of euthanasia due to negative clinical signs / animals euthanized due to negative clinical signs: H1975 study; for animals euthanized due to negative clinical signs: n=10/group, unclear whether due to tumor burden or treatment
Protocol: (§1) Female athymic nude mice were used in the studies (n=10/group). Treatment began when SC tumors reached approximately 100 to 300 mm^3 in size. and dosing was initiated according to the treatment plan summarized in Table 2. […] The control group was dosed with vehicle orally daily for 21 days, and the isotype control antibody was dosed twice a week IP for 3 weeks. Mice were monitored for body weight and tumor volume up to Day 95, and were euthanized when individual tumor volume reached 2,000 mm^3 or at study conclusion.
(§2) Relative body weight of individual mice was calculated using the formula: (W/W0)×100, where ‘W’ represents body weight on a particular day, and ‘W0’ represents body weight at initiation of treatment. Body weight was graphically represented as mean % of initial body weight±SEM.
Statistical significance was evaluated for all pairwise comparisons on the last day of the study when at least eight mice remained in each group. Differences between groups were considered significant when p≤0.05. Statistical significance of tumor volume and body weight was calculated using the Linear Mixed-Effects analysis in R software version 3.4.2 (using Janssen's internally developed Shiny application version 3.3), with treatment and time as fixed effects and animal as random effect. Logarithmic transformation (base 10) was performed if individual longitudinal response trajectories were not linear. The information derived from this model was used to make pairwise treatment comparisons to the control group or between all the treatment groups.

[3] = Body weight and clinical signs of nude mice bearing H1975-HGF xenografts; type: in vivo, female athymic nude mice; conditions: for body weight change compared to the control group: H1975-HGF-tumor-bearing mice, 10 mg/kg, JNJ-372 at Day 28, TKI-containing groups p<0.05; for day found dead or euthanized / mice found dead or euthanized due to negative clinical signs: H1975-HGF study; for mice found dead or euthanized due to negative clinical signs: n=10/group, unclear whether due to tumor burden or treatment
Protocol: as §1, §2
Tumor volume and body weight data were graphically represented using Prism software (GraphPad, version 7). Statistical significance was evaluated for all pairwise comparisons on the last day of the study when at least eight mice remained in each group. Differences between groups were considered significant when p≤0.05. […] Logarithmic transformation (base 10) was performed if individual longitudinal response trajectories were not linear. The information derived from this model was used to make pairwise treatment comparisons to the control group or between all the treatment groups.
The experimental design was as described in Example 1 except that H1975 cells stably transfected to express hepatocyte growth factor (HGF) (H1975-HGF cells) were used in the studies and hereafter referred to as H1975-HGF-CNT.

[4] = test system: EGFR-mutated NSCLC; assay: FIH dose escalation study of lazertinib monotherapy; type: in vivo, human
Protocol: The safety profile and preliminary efficacy of both agents in EGFR-mutated NSCLC population is based upon clinical experience of approximately 100 subjects in each study, including those enrolled into expansion cohorts at their respective RP2D.
In the current monotherapy dosing regimen, lazertinib is administered as a daily oral therapy, while JNJ-61186372 is administered intravenously weekly during Cycle 1, and then every other week thereafter, beginning with Cycle 2 Day 1.

[5] = test system: H1975 human lung xenografts; assay: Antitumor activity in H1975 human lung carcinoma xenograft model; conditions: for TGI as compared to controls: Day 28, 10 mg/kg each agent, TKI po qd x 21, JNJ-372 ip biwk x 3
Protocol: The animals were fed ad libitum water (reverse osmosis, 1 ppm Cl) and NIH 31 Modified and Irradiated Lab Diet® consisting of 18.0% crude protein, 5.0% crude fat, and 5.0% crude fiber. The mice were housed on irradiated Enrich-o'Cobs™ Laboratory Animal Bedding in static microisolators on a 12-hour light cycle at 20-22° C. (68-72° F.) and at 40-60% humidity. All studies complied with the recommendations of the Guide for Care and Use of Laboratory Animals with respect to restraint, husbandry, surgical procedures, feed and fluid regulation, and veterinary care.
NCI-H1975 cells were grown to mid-log phase in RPMI 1640 medium containing 10% fetal bovine serum, 2 mM glutamine, 100 units/mL sodium penicillin G, 25 μg/mL gentamicin, and 100 μg/mL streptomycin sulfate. The tumor cells were cultured in tissue culture flasks in a humidified incubator at 37° C., in an atmosphere of 5% CO2 and 95% air.
On the day of implant, the NCI-H1975 cells were harvested during log phase growth and resuspended in phosphate buffered saline (PBS) at a concentration of 5×10^7 cells/mL. Xenografts were initiated by subcutaneously implanting 5×10^6 NCI-H1975 cells per animal (0.1 mL suspension) into the right flank of each test animal and tumors were monitored as their volumes approached the target range of 150-200 mm^3. Fifteen days later, animals were sorted into bins by calculated tumor volumes based on vernier caliper measurements of tumor width and length to the nearest mm. The animals were then heuristically sorted among treatment groups, balancing the distribution of small to large sized tumor volumes among group assignments. […] Tumor size, in mm3, was calculated using the following formula: Tumor Volume=(w^2×l)/2 where w=width and l=length, in mm, of the tumor. […]
Female athymic nude mice were used in the studies (n=10/group). […] Mice were monitored for body weight and tumor volume up to Day 95, and were euthanized when individual tumor volume reached 2,000 mm^3 or at study conclusion.
Tumor volume data were graphically represented as the mean tumor volume±SEM. Tumor volume was calculated using the formula: tumor volume (mm^3)=(D×d2)/2; where ‘D’ represents the larger diameter, and ‘d’ the smaller diameter of the tumor as determined by caliper measurements.
The % TGI was defined as the difference between mean tumor burden of the treated and control group, calculated as % ΔTGI=([(TVc−TVc0)−(TVt−TVt0)]/(TVc−TVc0))×100 where ‘TVc’ is the mean tumor burden of a given control group, ‘TVc0’ is the mean initial tumor burden of a given control group, ‘TVt’ is the mean tumor burden of the treated group, and ‘TVt0’ is the mean initial tumor burden of the treated group.

[6] = target: mouse EGFR (Mus musculus, UniProt Q01279); assay: Binding of JNJ-372 to mouse EGFR
[7] = target: mouse c-Met (Mus musculus, UniProt P16056); assay: Binding of JNJ-372 to mouse c-Met
[8] = n=10/group, 10 mg/kg each agent

Sequence of mouse c-Met (P16056 25-1379): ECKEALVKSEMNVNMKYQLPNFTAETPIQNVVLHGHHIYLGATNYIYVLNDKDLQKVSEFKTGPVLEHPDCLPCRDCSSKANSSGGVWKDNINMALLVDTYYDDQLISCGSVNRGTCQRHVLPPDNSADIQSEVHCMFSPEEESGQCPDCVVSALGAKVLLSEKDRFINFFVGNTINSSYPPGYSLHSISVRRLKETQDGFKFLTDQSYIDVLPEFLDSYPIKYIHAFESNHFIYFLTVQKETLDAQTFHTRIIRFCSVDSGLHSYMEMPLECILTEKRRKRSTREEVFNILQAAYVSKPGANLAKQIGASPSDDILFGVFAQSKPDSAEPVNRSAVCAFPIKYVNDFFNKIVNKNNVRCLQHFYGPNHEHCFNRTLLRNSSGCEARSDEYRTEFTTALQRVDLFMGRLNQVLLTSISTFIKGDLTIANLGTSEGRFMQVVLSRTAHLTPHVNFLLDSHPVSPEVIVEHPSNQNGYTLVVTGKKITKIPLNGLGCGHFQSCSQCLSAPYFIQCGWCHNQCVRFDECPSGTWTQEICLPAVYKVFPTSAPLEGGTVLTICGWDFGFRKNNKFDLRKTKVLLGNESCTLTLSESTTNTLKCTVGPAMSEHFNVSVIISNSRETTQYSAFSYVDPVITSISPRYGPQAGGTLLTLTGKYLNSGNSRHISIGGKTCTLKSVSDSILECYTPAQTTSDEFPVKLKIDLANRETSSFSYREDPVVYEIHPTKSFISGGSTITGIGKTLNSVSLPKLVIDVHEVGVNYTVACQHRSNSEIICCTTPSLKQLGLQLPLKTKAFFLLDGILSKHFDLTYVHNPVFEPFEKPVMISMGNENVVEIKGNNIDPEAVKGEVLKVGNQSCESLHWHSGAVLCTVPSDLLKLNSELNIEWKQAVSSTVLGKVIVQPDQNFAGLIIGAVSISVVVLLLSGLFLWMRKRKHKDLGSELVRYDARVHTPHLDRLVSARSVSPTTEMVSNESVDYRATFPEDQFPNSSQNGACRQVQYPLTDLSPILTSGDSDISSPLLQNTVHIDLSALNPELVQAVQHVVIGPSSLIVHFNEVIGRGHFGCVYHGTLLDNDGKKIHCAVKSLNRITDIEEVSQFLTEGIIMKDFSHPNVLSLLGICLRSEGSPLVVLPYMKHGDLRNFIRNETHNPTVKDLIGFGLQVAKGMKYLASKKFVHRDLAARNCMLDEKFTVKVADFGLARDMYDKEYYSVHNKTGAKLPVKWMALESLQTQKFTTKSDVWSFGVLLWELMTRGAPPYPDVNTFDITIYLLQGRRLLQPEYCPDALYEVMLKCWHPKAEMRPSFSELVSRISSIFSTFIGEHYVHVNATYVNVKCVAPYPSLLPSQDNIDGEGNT

| Molecule | TGI as compared to controls [1] | CRs (complete tumor regression) [1, 8] | body weight change compared to the control group [2] | day of euthanasia due to negative clinical signs [2] | animals euthanized due to negative clinical signs [2] | body weight change compared to the control group [3] | dose from which clinical activity in the targeted population was demonstrated ([4]; EGFR-mutated NSCLC) | DLTs ([4]; through doses up to 320 mg) | TGI as compared to controls [5] | CRs (complete tumor regression, tumor not measurable on last day of analysis) [5, 8] | day found dead or euthanized [3] | mice found dead or euthanized due to negative clinical signs [3] | binding to mouse EGFR [6] | binding to mouse c-Met [7] |
| --- | --- | --- | --- | --- | --- | --- | --- | --- | --- | --- | --- | --- | --- | --- |
| C=CC(=O)Nc1cc(Nc2nccc(-n3cc(CN(C)C)c(-c4ccccc4)n3)n2)c(OC)cc1N1CCOCC1 [Lazertinib, N-(5-(4-(4-((dimethylamino)methyl)-3-phenyl-1H-pyrazol-1-yl)pyrimidin-2-ylamino)-4-methoxy-2-morpholinophenyl)acrylamide] | 75% | 2 of 10 | some transient body weight loss | 21 days | One | some transient body weight loss | 240 mg | no DLTs were observed | 112% | 1 of 10 |  |  |  |  |
| C=CC(=O)Nc1cc(Nc2nccc(-c3cn(C)c4ccccc34)n2)c(OC)cc1N(C)CCN(C)C [Osimertinib, reference compound] | 57% |  | some transient body weight loss |  |  | some transient body weight loss |  |  | 111% |  | 51 days | One |  |  |
| JNJ-372 | 70% |  | did not elicit significant body weight loss | 43 days | One | did not elicit significant body weight loss |  |  | 86% |  | 53 days | One | does not bind | does not bind |
